Measured values taken from PMC3285688, “Active Site Mutations Change the Cleavage Specificity of Neprilysin” (PLoS ONE, 2012).

Columns and labels:
[1] = test system: NEP and each of the studied mutants; assay: Inhibition of Glut-Ala-Ala-Phe-MNA hydrolysis by NEP inhibitors; assay type: biochemical, human
Experimental: Reactions of 400 µl contained 100 µM Glut-Ala-Ala-Phe-MNA, 1 µg of aminopeptidase and 15 to 100 ng of NEP or mutant NEP depending on their activity in 20 mM MES buffer, pH 6.5. Activity was monitored with a Spectra Max Gemini XS plate reader using an excitation wavelength of 340 nm and an emission wavelength of 425 nm.

NEP [2] = assay: Degradation of peptide substrates by NEP: extent and cleavage sites (HPLC, mass spectrometry)
Experimental: Degradation of insulin B chain by wild-type NEP was analyzed by reverse-phase HPLC following the appearance of each product as a function of time, Figure 1 . Product peaks were collected and subsequently analyzed by mass spectrometry to determine their identities. […] Based on the order of appearance of each peak, it is likely that insulin B chain1–10, insulin B chain1–11, insulin B chain1–14 and its partner peak insulin B chain15–30, insulin B chain17–30, and insulin B chain24–30 are all products of primary cleavages. These products appear at the first time point when approximately 15% hydrolysis of insulin B chain had occurred (30 minutes). At 30% hydrolysis (90 min.), peaks corresponding to insulin B chain1–5 and insulin B chain17–24 are observed. Peaks for insulin B chain1–16 and insulin B chain15–23 become apparent at >30% insulin B chain hydrolysis. […] It is likely that these are transient products that are subsequently cleaved contributing to other product peaks (i.e. insulin B chain24–30).
To further study the effect of mutations on cleavage site specificity, time course assays were also performed for the hydrolysis of the physiological substrate Aß1–40. Like the analysis of insulin B chain, a time course assay was first done with NEP to identify cleavage products, Figure 3 and Table 6 . After 15% hydrolysis of Aß1–40 (150 min.) by NEP there were six discernable product peaks corresponding to Aß1–16, Aß1–17, Aß10–17, Aß20–28, Aß20–29, and Aß20–30. […]
Cleavage of physiological peptides was measured via reverse phase high performance liquid chromatography (HPLC) following incubation of the purified NEP or its mutants with 15 µM insulin B chain (Sigma Aldrich), 24 µM Aß1–40 (Anaspec), or 64 µM leu-ENK (Sigma) in 100 µL of 20 mM MES, pH 6.5, at 37°C. […] Peptides and hydrolysis products were detected at 214 nm and quantified by measuring peak areas. Peptides obtained from HPLC were analyzed on an Applied Biosystems 4800 MALDI TOF/TOF Proteomics Analyzer at the University of Kentucky Proteomics core. […]

NEP [3] = details: cited from earlier work
From the text: Two other studies have identified NEP cleavage sites within Aß1–40 [25], [26].

CC(C)C[C@H](NP(=O)(O)O[C@@H]1O[C@@H](C)[C@H](O)[C@@H](O)[C@H]1O)C(=O)N[C@@H](Cc1c[nH]c2ccccc12)C(=O)O [phosphoramidon]
Inhibition of Glut-Ala-Ala-Phe-MNA hydrolysis ([1]; inhibitor at 100 µM): completely inhibited

Tyr-Gly-Gly-Phe-Leu [leu-ENK, leucine^5-enkephalin, leucine5-enkephalin (Tyr-Gly-Gly-Phe-Leu), physiological substrate]
Cleavage site (bond cleaved) (NEP [2]; NEP and mutants, 20 mM MES pH 6.5, 37°C): Gly-Phe bond

O=C(O)CCNC(=O)[C@H](Cc1ccc(-c2ccccc2)cc1)NCP(=O)(O)O [CGS 24592]
Inhibition of Glut-Ala-Ala-Phe-MNA hydrolysis ([1]; inhibitor at 10 nM): completely inhibited

Aß1–40: amyloid beta peptide 1–40, physiological substrate (Anaspec)
Cleavages of Aß1–40 detected by Leissring et al. (NEP [3]): Cleavages at K^28-G^29 and G^29-A^30
Cleavages of Aß1–40 detected in two other studies and the current study (NEP [3]): G^9-Y^10, F^19-F^20, and A^30-I^31
Additional unreported cleavage sites detected in Aß1–40 (NEP [2]): E^11-V^12, K^16-L^17, and L^17-V^18
